18 compounds from ChEMBL document CHEMBL5729175, “Pharmaceutical composition for preventing or treating acute myeloid leukemia or metastatic breast cancer” (2022) can be followed below.

This test concerns the target T1, Receptor-type tyrosine-protein kinase FLT3 (Homo sapiens, UniProt P36888).
T1 sequence (P36888 whole entry): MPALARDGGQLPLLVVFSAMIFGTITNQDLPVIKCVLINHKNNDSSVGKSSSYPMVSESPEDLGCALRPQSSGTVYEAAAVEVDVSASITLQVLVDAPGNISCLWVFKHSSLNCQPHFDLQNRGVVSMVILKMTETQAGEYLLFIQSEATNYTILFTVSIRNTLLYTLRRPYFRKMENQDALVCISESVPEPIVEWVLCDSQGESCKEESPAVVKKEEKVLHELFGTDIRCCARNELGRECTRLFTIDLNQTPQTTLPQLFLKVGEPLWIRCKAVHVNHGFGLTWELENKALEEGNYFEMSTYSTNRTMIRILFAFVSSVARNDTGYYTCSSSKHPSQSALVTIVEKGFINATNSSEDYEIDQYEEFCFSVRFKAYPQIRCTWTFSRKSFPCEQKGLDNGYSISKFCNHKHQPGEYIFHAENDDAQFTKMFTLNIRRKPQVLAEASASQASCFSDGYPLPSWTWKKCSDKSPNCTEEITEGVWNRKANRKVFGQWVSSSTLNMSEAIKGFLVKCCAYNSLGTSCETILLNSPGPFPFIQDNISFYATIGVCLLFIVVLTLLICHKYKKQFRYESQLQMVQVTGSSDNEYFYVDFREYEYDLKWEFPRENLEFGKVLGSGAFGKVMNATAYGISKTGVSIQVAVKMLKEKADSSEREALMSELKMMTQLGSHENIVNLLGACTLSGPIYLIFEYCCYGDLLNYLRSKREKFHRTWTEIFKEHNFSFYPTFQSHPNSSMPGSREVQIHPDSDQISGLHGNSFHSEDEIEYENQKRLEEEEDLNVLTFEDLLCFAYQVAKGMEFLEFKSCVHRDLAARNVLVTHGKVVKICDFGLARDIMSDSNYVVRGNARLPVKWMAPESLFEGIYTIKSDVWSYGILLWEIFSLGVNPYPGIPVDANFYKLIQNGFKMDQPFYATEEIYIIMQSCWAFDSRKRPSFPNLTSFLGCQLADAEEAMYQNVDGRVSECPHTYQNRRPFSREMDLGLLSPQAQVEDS
As to the kind of experiment: In Vitro Kinase Assay: The inhibition of the FLT3 kinase activity was measured with homogeneous, time-resolved fluorescence (HTRF) assays. Recombinant proteins containing the FLT3 kinase domain were purchased from Invitrogen (Carlsbad, Calif., USA). Optimal enzyme, ATP, and substrate concentrations were established with the HTRF KinEASE kit (Cisbio, France) according to the manufacturer's instructions. The FLT3 enzymes were mixed with serially diluted compounds and peptide substrates in a kinase reaction buffer (50 mM HEPES (pH 7.0), 500 μM ATP, 0.1 mM sodium orthovanadate, 5 mM MgCl2, 1 mM DTT, 0.01% bovine serum albumin (BSA), and 0.02% NaN3). Ten microliters of the total volume of the kinase reaction were added to the wells of a 96-well assay plate. The kinase reactions were incubated for 30 min at 25° C. For the detection of the phospho-substrate, the Eu3b-Cryptate-conjugated mouse monoclonal antibody (PT66) and the streptavidin-XL665 (SA-XL) were added, and the reactions were then incubated for 1 hour at 25° C. The signal was measured on an Victor X5 multi-label reader (PerkinElmer, Waltham, Mass., USA).
The term IC50 denotes the concentration at which inhibition is half-maximal. With `O=C1Nc2ccc(F)cc2/C1=C1/Nc2ccccc2/C1=N\OCCN1CCNCC1`, the IC50 amounted to 0.9 nM.

Regarding `CN1CCN(CCO/N=C2/C(=C3/C(=O)Nc4ccccc43)Nc3ccccc32)CC1`, the IC50 came to 7.42 nM.

In the case of `CN1CCN(CCO/N=C2/C(=C3/C(=O)Nc4ccc(F)cc43)Nc3ccccc32)CC1`, the IC50 came to 3.2 nM.

As to `O=C1Nc2ccccc2/C1=C1/Nc2ccccc2/C1=N\OCCN1CCCC1`, the half-inhibitory concentration (IC50) was determined as 51.9 nM.

Regarding `O=C1Nc2ccc([N+](=O)[O-])cc2/C1=C1/Nc2ccc(F)cc2/C1=N\OCCN1CCNCC1`, the IC50 worked out at 35.5 nM.

Regarding `O=C1Nc2ccccc2/C1=C1/Nc2ccccc2/C1=N\OCCN1CCCCC1`, the IC50 was found to be 251 nM.

As for `CN1CCN(CCO/N=C2/C(=C3/C(=O)Nc4ccc([N+](=O)[O-])cc43)Nc3ccc(F)cc32)CC1`, the IC50 turned out to be 35.5 nM.

Turning to `CN1CCN(CCO/N=C2/C(=C3/C(=O)Nc4ccc(F)cc43)Nc3ccc(F)cc32)CC1`, the IC50 was determined as 40.4 nM.

With `O=C1Nc2ccc(F)cc2/C1=C1/Nc2ccc(F)cc2/C1=N\OCCN1CCNCC1`, the 50% inhibitory concentration (IC50) is 26.2 nM.

Take `O=C1Nc2ccc(I)cc2/C1=C1/Nc2ccccc2/C1=N\OCCN1CCNCC1`: the half-maximal inhibitory concentration (IC50) worked out at 1.8 nM.

On to `CN1CCN(CCO/N=C2/C(=C3/C(=O)Nc4ccc(Cl)cc43)Nc3ccccc32)CC1`, for which the IC50 came to 2.4 nM.

For the compound `NC1CCN(CCO/N=C2/C(=C3/C(=O)Nc4ccc(F)cc43)Nc3ccc(F)cc32)CC1`, the IC50 came out at 81.5 nM.

With `COC(=O)c1ccc2c(c1)/C(=C1/Nc3ccccc3/C1=N\OCCN1CCOCC1)C(=O)N2`, the IC50 came out at 253 nM.

For the compound `CN1CCN(CCO/N=C2/C(=C3/C(=O)Nc4ccc(I)cc43)Nc3ccccc32)CC1`, the IC50 stood at 5.8 nM.

As for `O=C1Nc2ccc(Cl)cc2/C1=C1/Nc2ccccc2/C1=N\OCCN1CCNCC1`, the IC50 was 1.3 nM.

As for `O=C1Nc2ccc([N+](=O)[O-])cc2/C1=C1/Nc2ccc(F)cc2/C1=N\OCCN1CCCC1`, the IC50 turned out to be 112 nM.

In the case of `O=C1Nc2ccc([N+](=O)[O-])cc2/C1=C1/Nc2ccc(F)cc2/C1=N\OCCN1CCCCC1`, the IC50 was found to be 453 nM.

`O=C1Nc2ccc(Br)cc2/C1=C1/Nc2ccccc2/C1=N\OCCN1CCNCC1`: the IC50 stood at 1 nM.
